According to ChEMBL document CHEMBL1201862, “PubChem BioAssay data set” (2004):
Calls of active or inactive are those of the source. For most assays here, no stated cut-off is given here; in the data, actives have a measured IC50 and inactives only a lower limit.

Assays:
Format in all cases: functional
[1] = molecular target: T1, Apoptotic protease-activating factor 1 (Homo sapiens, UniProt O14727); assay: SAR analysis of small molecule Activators of Apaf-1 in a Fluorescent assay.; settings: read-out: EC50_Mean;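 further: caspase-3 cleavage of fluorogenic Rh110 DEVD substrate downstream of apoptosome activation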
T1 sequence (O14727 whole entry): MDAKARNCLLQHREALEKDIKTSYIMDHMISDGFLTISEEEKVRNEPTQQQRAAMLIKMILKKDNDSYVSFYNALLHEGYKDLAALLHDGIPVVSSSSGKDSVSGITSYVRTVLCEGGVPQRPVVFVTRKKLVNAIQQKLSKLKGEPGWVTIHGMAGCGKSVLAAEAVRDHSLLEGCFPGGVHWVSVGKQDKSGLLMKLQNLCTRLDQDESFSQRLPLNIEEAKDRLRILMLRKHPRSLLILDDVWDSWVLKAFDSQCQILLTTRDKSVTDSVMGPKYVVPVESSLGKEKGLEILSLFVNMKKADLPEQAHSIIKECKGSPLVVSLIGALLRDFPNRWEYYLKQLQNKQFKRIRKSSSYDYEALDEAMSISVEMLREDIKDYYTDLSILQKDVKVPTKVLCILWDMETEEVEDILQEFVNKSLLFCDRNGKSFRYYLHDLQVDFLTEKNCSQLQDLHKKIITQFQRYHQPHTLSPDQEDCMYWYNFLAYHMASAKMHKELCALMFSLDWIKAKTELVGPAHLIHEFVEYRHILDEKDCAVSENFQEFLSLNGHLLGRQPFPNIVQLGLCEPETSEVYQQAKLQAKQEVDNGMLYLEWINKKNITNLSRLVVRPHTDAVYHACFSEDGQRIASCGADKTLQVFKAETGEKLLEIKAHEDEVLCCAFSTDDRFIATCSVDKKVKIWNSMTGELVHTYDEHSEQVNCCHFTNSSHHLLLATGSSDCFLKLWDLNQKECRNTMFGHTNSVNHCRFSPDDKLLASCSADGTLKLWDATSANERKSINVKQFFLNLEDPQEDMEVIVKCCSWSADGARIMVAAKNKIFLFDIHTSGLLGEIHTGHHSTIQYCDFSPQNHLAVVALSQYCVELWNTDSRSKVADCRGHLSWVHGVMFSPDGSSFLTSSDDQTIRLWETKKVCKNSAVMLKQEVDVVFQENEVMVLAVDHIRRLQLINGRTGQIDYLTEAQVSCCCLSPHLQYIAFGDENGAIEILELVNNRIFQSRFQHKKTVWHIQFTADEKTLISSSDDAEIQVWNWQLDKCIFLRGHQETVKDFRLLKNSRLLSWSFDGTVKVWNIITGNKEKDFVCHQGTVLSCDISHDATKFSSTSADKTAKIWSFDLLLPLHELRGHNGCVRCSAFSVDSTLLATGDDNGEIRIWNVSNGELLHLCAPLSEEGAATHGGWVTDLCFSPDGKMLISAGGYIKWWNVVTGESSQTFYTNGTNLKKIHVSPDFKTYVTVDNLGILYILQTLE

[2] = molecular target: T2, Sentrin-specific protease 8 (Homo sapiens, UniProt Q96LD8); assay: SENP8 protease inhibitors, SAR follow-up, biochemical, luminescence, set 2 (AID 588601)
T2 sequence (Q96LD8 whole entry): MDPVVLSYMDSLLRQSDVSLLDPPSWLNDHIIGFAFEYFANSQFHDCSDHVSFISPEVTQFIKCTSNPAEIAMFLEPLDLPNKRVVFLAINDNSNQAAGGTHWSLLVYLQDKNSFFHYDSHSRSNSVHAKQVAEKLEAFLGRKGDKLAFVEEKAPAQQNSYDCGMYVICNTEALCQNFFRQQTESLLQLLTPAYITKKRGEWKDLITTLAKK

[3] = molecular target: T3, Sentrin-specific protease 7 (Homo sapiens, UniProt Q9BQF6); assay: SENP7 protease inhibitors, SAR follow-up, biochemical, luminescence, set 2 (AID 588600)
T3 sequence (Q9BQF6 whole entry): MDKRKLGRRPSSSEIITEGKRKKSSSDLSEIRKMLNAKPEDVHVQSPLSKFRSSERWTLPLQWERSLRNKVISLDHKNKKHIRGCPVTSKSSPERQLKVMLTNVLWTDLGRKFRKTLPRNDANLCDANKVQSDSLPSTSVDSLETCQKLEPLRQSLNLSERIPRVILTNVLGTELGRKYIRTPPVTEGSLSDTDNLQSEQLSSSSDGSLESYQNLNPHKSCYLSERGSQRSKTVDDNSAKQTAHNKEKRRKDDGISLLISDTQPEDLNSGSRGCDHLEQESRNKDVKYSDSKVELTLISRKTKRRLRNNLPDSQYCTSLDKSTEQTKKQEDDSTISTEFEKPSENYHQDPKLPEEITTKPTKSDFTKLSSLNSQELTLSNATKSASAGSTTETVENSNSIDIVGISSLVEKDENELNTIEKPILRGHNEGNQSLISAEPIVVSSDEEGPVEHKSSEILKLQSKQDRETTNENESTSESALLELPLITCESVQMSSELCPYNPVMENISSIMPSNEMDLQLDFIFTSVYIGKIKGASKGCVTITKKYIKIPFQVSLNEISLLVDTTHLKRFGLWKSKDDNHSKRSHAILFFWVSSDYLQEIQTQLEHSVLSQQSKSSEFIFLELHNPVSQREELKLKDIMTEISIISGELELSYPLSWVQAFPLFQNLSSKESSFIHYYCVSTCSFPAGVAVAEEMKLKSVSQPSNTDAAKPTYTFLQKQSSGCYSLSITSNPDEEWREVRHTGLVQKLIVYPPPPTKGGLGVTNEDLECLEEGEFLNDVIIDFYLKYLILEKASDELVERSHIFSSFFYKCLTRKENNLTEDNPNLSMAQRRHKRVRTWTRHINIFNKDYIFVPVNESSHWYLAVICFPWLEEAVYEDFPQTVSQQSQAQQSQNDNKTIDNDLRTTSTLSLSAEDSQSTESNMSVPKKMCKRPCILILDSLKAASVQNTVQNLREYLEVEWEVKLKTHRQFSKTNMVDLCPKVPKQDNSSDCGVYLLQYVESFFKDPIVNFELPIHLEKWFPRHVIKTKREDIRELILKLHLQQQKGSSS

[4] = molecular target: T3, Sentrin-specific protease 7; assay: SENP7 protease inhibitors, SAR follow-up, biochemical, luminescence (AID 504497)
Caspase-3 [5] = molecular target: T4, Caspase-3 (Homo sapiens, UniProt P42574); assay: SAR Analysis of small molecule inhibitors of Sentrin-specific proteases (SENPs) using a Caspase-3 Selectivity assay. [Related pubchem assays (depositor defined):AID2540, AID2599, AID434973, AID489001]
T4 sequence (P42574 whole entry): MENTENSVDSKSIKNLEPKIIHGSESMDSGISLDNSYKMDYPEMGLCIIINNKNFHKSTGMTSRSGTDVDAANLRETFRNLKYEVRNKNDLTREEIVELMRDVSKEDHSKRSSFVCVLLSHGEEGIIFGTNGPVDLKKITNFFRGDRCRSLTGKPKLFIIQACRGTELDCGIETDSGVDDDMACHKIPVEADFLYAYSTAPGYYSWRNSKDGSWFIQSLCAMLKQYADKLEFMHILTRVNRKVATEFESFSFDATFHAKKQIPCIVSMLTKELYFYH

[6] = molecular target: T5, Sentrin-specific protease 6 (Homo sapiens, UniProt Q9GZR1); assay: SAR Analysis of small molecule inhibitors of Sentrin-specific protease 6 (SENP6) using a Luminescent assay. [Related pubchem assays (depositor defined):AID2582, AID2599]
T5 sequence (Q9GZR1 whole entry): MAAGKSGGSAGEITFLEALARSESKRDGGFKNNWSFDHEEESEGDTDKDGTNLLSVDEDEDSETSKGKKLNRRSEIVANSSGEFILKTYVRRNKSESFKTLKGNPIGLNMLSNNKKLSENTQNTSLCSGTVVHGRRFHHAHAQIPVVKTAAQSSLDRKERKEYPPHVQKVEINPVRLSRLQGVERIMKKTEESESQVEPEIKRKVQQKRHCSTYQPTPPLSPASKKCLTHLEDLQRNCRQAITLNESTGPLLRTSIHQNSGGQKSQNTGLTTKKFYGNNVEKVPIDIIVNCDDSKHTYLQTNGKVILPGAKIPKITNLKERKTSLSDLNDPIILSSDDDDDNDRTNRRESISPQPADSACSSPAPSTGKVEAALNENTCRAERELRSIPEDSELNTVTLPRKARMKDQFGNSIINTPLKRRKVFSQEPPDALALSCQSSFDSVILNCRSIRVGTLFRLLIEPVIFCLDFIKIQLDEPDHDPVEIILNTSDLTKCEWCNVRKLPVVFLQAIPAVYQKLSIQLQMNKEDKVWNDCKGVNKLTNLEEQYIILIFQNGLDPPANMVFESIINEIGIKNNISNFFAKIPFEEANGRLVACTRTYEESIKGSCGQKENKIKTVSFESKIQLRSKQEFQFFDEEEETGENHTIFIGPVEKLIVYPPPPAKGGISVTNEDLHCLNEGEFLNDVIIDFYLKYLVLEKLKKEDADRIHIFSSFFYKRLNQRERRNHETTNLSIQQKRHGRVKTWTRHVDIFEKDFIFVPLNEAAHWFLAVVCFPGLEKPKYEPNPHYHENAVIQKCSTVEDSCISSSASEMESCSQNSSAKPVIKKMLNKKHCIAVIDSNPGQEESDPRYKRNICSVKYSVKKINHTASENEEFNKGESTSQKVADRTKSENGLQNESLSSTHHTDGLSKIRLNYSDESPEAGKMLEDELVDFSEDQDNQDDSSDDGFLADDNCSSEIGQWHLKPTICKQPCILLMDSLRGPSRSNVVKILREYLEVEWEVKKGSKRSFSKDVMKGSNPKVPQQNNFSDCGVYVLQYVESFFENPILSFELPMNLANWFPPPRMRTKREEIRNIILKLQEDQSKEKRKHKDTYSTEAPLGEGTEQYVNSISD

Caspase-3 [7] = molecular target: T4, Caspase-3; assay: caspase-3 inhibitors as off-family protease, SAR follow-up, selectivity assay for SENP protease inhibitor project, biochemical, luminescence, set 2 (AID 588599)
[8] = molecular target: T2, Sentrin-specific protease 8; assay: SENP8 protease inhibitors, SAR follow-up, biochemical, luminescence (AID 504501)
[9] = molecular target: T5, Sentrin-specific protease 6; assay: SENP6 protease inhibitors, SAR follow-up, biochemical, luminescence, set 2 (AID 588598)
[10] = molecular target: T6, Neuropeptides B/W receptor type 1 (Homo sapiens, UniProt P48145); assay: GPR7 antagonist potency, late-stage follow-up, cell-based, fluorescence, dose response, set 6 (AID 588583)
T6 sequence (P48145 whole entry): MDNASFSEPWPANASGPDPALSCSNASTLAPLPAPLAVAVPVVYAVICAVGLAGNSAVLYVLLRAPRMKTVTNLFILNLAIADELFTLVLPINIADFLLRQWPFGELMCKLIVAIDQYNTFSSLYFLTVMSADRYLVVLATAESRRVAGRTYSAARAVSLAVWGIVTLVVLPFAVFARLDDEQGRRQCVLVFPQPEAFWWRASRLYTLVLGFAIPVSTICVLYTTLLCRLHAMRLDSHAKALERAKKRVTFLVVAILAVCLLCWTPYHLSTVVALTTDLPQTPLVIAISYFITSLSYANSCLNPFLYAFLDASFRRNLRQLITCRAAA

[11] = molecular target: Melanin-concentrating hormone receptor 1 (Homo sapiens, UniProt Q99705); assay: Late-stage fluorescence-based counterscreen for antagonists of the G-protein coupled receptor 7 (GPR7): cell-based dose response assay to identify antagonists of the melanin-concentrating hormone receptor 1 (MCHR1) Set 6.
Melanin-concentrating hormone receptor 1, sequence (Q99705 whole entry): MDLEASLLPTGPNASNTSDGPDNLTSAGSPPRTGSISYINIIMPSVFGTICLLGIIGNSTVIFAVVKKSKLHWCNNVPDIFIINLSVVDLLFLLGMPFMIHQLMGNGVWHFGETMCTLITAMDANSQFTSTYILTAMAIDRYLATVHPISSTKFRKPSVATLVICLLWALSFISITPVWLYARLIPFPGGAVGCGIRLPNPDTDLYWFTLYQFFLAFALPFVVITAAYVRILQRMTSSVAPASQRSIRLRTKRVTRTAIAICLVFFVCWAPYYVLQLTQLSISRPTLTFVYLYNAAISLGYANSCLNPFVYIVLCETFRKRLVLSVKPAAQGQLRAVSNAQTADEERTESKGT

[12] = molecular target: Vascular endothelial growth factor receptor 2 (Homo sapiens, UniProt P35968)
Vascular endothelial growth factor receptor 2, sequence (P35968 whole entry): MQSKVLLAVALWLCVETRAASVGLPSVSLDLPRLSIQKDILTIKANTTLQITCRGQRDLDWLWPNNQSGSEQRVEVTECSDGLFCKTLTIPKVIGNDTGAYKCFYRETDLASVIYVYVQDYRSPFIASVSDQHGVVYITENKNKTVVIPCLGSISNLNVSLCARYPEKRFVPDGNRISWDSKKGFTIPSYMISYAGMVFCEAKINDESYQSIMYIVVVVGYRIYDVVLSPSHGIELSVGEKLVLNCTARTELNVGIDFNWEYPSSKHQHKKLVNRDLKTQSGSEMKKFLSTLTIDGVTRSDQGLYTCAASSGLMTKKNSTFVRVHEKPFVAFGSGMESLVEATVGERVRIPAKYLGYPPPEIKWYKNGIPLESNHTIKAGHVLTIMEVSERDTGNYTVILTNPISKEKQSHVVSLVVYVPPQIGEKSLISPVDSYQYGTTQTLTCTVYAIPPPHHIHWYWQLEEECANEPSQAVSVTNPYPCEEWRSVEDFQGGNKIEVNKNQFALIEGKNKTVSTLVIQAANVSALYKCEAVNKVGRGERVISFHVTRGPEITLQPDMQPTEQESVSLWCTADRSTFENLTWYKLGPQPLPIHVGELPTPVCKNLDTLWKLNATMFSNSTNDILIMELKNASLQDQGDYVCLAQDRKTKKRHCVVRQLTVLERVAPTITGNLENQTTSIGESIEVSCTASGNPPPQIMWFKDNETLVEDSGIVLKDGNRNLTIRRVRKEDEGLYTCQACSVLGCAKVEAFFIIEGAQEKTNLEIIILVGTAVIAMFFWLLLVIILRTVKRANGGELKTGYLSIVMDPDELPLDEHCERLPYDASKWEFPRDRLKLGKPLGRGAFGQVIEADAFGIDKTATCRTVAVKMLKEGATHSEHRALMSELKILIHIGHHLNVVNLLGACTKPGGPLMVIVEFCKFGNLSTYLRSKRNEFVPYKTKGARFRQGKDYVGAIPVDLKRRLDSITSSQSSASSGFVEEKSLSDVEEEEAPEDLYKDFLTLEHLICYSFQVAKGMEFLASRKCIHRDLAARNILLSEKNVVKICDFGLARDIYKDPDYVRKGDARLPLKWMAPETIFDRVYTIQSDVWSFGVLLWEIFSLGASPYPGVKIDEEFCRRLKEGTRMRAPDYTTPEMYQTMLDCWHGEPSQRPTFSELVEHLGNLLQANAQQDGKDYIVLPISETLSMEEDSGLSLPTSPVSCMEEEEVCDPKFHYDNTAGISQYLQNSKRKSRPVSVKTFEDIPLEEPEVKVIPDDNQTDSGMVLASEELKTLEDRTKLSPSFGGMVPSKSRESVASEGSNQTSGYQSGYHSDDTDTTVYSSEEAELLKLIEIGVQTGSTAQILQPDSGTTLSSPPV

Aurora kinase A = Aurora kinase A (Homo sapiens, UniProt O14965);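 further: value from the Navigating the Kinome kinase panel profiling, panel entry STK6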
Aurora kinase A, sequence (O14965 whole entry): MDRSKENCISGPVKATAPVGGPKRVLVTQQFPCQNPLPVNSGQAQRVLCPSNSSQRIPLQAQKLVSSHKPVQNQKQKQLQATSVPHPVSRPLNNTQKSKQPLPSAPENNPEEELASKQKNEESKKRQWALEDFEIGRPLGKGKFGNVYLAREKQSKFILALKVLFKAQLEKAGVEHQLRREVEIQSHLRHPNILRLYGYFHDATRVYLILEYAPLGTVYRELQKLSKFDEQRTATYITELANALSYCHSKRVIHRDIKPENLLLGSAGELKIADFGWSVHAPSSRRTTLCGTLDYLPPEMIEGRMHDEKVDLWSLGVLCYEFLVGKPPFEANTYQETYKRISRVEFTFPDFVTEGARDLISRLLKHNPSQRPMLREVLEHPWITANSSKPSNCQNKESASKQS

Aurora kinase B = Aurora kinase B (Homo sapiens, UniProt Q96GD4)
Aurora kinase B, sequence (Q96GD4 whole entry): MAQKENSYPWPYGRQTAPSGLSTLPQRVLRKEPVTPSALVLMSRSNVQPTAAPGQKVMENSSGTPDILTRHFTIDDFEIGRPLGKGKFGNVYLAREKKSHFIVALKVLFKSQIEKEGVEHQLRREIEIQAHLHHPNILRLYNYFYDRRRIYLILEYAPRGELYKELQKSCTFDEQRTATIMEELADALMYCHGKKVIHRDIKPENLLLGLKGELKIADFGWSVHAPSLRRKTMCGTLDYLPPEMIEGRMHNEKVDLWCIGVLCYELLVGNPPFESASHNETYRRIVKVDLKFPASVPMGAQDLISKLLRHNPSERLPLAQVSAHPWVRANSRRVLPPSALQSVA

Compound	IC50 [2]	IC50 [3]	IC50 [4]	IC50 (Caspase-3 [5])	IC50 [6]	IC50 (Caspase-3 [7])	IC50 [8]	IC50 [9]	IC50 [10]	IC50 [11]	other results
CCOc1ccccc1NC(=O)CCS(=O)(=O)c1ccc2c(c1)oc(=O)n2C											EC50 [1]: > 100 µM (inactive)
CCCCc1ccc2nc(NC(=O)c3ccsc3)sc2c1	1.8 µM (active)	1.96 µM (active)	1.9 µM (active)	6.2 µM (active)	2.8 µM (active)	5.28 µM (active)	3.1 µM (active)	1.84 µM (active)			
Cc1cccc(-c2nc(/C=C/c3ccccc3)no2)c1	16.7 µM (active)	14.9 µM (active)	16 µM (active)	52 µM (active)	49 µM (active)	48.6 µM (active)	48 µM (active)	16.7 µM (active)			
COc1ccc(Oc2c(CO)cnn(Cc3cccc4ccccc34)c2=O)cc1									2.99 µM (active)	2.99 µM (active)	
N#CC(c1cccs1)c1c(Cl)cnn(Cc2cccc3ccccc23)c1=O (centres undefined)									1.07 µM (active)	1.07 µM (active)	
Cc1ccc(-c2nc3ccc(Br)cc3c(C(=O)O)c2CC(=O)O)cc1											Ki [12]: 0.501 µM (active); Ki (Aurora kinase A): 0.0794 µM (active); Ki (Aurora kinase B): 0.158 µM (active)
